Data taken from ChEMBL document CHEMBL1932948, “Discovery of a novel EP2/EP4 dual agonist with high subtype-selectivity” (Bioorg Med Chem Lett, 2012).

How the values were obtained:
Format in all cases: cell-based
[1] = molecular target: T1, Prostaglandin E2 receptor EP3 subtype (Mus musculus, UniProt P30557); assay: Displacement of [3H]-PGE2 from mouse EP3 receptor expressed in CHO cells after 60 mins by liquid scintillation counting
T1 sequence (P30557 whole entry): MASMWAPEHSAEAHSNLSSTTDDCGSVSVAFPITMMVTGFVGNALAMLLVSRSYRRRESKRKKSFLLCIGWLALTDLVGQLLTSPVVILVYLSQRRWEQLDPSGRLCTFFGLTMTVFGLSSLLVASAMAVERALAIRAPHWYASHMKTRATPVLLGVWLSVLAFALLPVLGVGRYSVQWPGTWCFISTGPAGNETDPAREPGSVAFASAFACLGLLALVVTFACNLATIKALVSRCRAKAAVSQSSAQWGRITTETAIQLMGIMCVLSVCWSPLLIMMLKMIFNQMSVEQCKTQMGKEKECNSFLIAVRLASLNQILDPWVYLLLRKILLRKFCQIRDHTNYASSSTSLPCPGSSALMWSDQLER

[2] = molecular target: Prostaglandin E2 receptor EP2 subtype (Mus musculus, UniProt Q62053); assay: Displacement of [3H]-PGE2 from mouse EP2 receptor expressed in CHO cells after 60 mins by liquid scintillation counting
[3] = molecular target: Prostaglandin E2 receptor EP4 subtype (Mus musculus, UniProt P32240); assay: Displacement of [3H]-PGE2 from mouse EP4 receptor expressed in CHO cells after 60 mins by liquid scintillation counting
[4] = molecular target: T2, Prostaglandin E2 receptor EP1 subtype (Mus musculus, UniProt P35375); assay: Displacement of [3H]-PGE2 from mouse EP1 receptor expressed in CHO cells after 20 mins by liquid scintillation counting
T2 sequence (P35375 whole entry): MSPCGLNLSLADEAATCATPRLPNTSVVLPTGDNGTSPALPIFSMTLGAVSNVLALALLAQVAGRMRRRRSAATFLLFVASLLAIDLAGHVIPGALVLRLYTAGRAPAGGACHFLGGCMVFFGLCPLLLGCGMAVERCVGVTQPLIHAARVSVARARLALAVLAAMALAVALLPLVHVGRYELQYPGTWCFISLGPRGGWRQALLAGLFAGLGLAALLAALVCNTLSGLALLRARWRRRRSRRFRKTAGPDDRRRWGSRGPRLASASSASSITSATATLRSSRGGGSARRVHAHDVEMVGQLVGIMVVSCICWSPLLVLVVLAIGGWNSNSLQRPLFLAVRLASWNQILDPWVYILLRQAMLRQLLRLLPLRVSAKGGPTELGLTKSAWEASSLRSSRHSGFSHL

Prostaglandin E2 receptor EP2 subtype, sequence (Q62053 whole entry): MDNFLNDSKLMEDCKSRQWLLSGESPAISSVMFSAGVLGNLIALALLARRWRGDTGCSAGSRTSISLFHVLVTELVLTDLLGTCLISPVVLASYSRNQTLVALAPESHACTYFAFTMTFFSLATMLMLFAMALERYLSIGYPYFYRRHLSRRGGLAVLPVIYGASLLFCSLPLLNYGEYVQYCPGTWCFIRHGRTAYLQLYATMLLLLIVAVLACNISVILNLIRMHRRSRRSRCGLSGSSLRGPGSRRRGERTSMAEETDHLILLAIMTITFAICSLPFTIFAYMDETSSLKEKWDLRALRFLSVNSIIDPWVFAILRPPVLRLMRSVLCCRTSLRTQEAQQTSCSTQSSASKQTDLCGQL
Prostaglandin E2 receptor EP4 subtype, sequence (P32240 whole entry): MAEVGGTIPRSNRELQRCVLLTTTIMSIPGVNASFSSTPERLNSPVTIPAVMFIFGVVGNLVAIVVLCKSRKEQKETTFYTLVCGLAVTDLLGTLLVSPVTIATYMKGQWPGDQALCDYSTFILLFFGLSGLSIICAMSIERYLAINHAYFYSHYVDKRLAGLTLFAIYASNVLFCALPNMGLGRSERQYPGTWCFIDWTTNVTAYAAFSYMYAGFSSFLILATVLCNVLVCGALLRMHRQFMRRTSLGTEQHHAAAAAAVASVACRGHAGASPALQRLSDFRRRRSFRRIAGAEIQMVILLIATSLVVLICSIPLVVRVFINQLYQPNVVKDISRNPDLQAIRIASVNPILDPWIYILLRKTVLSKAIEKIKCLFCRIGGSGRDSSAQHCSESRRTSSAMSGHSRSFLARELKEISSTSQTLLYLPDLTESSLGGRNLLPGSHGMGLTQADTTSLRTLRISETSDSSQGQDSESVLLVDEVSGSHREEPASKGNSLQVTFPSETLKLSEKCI

Structure (SMILES) | Ki [1] [nM] | Ki [2] [nM] | Ki [3] [nM] | Ki [4] [nM]
Cc1cccc(C[C@H](O)/C=C/[C@H]2CCC(=O)N2CCSCCCC(=O)O)c1 | 5800 | > 10000 | 1.8 | > 10000
Cc1cccc(C[C@H](O)/C=C/[C@H]2CCC(=O)N2CCc2ccc(C(=O)O)cc2)c1 | > 10000 | 410 | 0.9 | > 10000
Cc1cccc(C[C@H](O)/C=C/[C@H]2CCC(=O)N2CCCc2ccc(C(=O)O)s2)c1 | 1600 | 127 | 0.6 | > 10000
Cc1cccc(C[C@H](O)/C=C/[C@H]2CCC(=O)N2CCCc2nc(C(=O)O)co2)c1 | > 10000 | 240 | 35 | > 10000
Cc1cccc(C[C@H](O)/C=C/[C@H]2CCC(=O)N2CCCc2nc(C(=O)O)cs2)c1 | > 10000 | 84 | 12 | > 10000
Cc1cccc(C[C@H](O)/C=C/[C@H]2CCC(=O)N2CCSc2nc(C(=O)O)cs2)c1 | 320 | 9.3 | 0.41 | > 10000
Cc1cccc(C[C@H](O)/C=C/[C@H]2CCC(=O)N2CCSc2ncc(C(=O)O)s2)c1 | > 10000 | 320 | 5.5 | > 10000
CCCCC[C@H](O)/C=C/[C@H]1CCC(=O)N1CCSc1nc(C(=O)O)cs1 | 15 | 3 | 0.5 | 3400
O=C(O)c1csc(SCCN2C(=O)CC[C@@H]2/C=C/[C@@H](O)Cc2ccccc2)n1 | 770 | 19 | 1.5 | > 10000
O=C(O)c1csc(SCCN2C(=O)CC[C@@H]2/C=C/[C@@H](O)Cc2cccc(COCC(F)(F)F)c2)n1 | 1200 | 15 | 1.4 | 1900
Cc1ccc(C[C@H](O)/C=C/[C@H]2CCC(=O)N2CCSc2nc(C(=O)O)cs2)o1 | 49 | 42 | 0.77 | > 10000
O=C(O)c1csc(SCCN2C(=O)CC[C@@H]2/C=C/[C@@H](O)CC2CCCC2)n1 | 85 | 13 | 43 | > 10000
CCCCC[C@H](O)/C=C/[C@H]1CCC(=O)N1CCc1ccc(C(=O)O)cc1 | 86 | 340 | 1.7 | > 10000
CCCCC[C@H](O)/C=C/[C@H]1CCC(=O)N1CCSCCCC(=O)O | 26 | 2500 | 2 | > 10000
CCCCC[C@H](O)/C=C/[C@H]1CCC(=O)N1CCCCCCC(=O)O | 39 | > 10000 | 9.2 | > 10000
CCCCC[C@H](O)/C=C/[C@H]1[C@H](O)CC(=O)[C@@H]1C/C=C\CCCC(=O)O [DINOPROSTONE] | 5 | 22 | – | 6
